Values quoted from earlier work in patent publication US9730952B2, “Methods for treating and preventing mucositis” (Indena S.p.A., priority 2006, dated 2017).

Experiments:
[1] = test system: numerous strains of Candida and other pathogenic fungi

| Compound | concentration inhibiting growth of Gram+ and Gram− bacteria (Gram+ and Gram− bacteria) | concentration inhibiting growth of numerous strains of Candida and other pathogenic fungi [1] |
| --- | --- | --- |
| CN1Cc2c(ccc3c2OCO3)[C@@H]2[C@H]1c1cc3c(cc1C[C@@H]2O)OCO3 [chelidonine] | nanomolar concentrations | nanomolar concentrations |
| COc1ccc2c(c[n+](C)c3c4cc5c(cc4ccc23)OCO5)c1OC [chelerythrine] | nanomolar concentrations | nanomolar concentrations |
